Each structure is given as a SMILES string.

For orientation: IC50 means the concentration that gives 50% inhibition.

The target in one experiment is T1, Tyrosine-protein kinase BTK (Homo sapiens, UniProt Q06187). In words: Inhibition of BTK (unknown origin) assessed as reduction in phosphorylation of coumarin and fluorescein-labeled FRET peptide substrate incubated for 1 hr by Z-Lyte assay.
T1 sequence (Q06187 whole entry): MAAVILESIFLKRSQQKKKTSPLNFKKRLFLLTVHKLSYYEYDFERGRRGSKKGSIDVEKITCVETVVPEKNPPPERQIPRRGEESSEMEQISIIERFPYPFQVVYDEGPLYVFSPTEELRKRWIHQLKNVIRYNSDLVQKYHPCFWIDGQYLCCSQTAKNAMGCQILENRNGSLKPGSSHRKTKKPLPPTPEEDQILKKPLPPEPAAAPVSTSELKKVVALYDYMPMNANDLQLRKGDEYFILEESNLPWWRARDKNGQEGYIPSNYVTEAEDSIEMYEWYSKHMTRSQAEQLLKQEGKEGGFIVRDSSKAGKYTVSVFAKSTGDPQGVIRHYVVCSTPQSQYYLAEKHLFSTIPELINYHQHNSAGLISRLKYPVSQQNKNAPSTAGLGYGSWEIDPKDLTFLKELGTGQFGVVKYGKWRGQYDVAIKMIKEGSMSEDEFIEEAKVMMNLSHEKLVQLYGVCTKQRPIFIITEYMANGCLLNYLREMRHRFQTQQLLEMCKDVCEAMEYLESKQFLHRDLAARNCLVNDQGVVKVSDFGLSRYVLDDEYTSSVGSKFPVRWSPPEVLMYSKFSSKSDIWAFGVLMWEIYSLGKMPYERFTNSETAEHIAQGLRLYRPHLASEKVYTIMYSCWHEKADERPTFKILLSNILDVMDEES
On to `C=CC(=O)N1CCN(c2ncnc(N)c2C(=O)c2ccc(Oc3ccccc3)cc2)CC1`, for which the IC50 was determined as 880 nM.
Same read-out and setting: the value for `C=CC(=O)N1CCC(Nc2ncnc(N)c2C(=O)c2ccc(Oc3ccccc3)cc2)CC1` was 1070 nM.
Take `C=CC(=O)N1CCN(c2ncnc(N)c2C(=O)c2ccc(OCC)cc2)CC1`: the IC50 is 1320 nM.
Regarding `C=CC(=O)N1CCC[C@@H](Nc2ncnc(N)c2C(=O)c2ccc(OCC)cc2)C1`, the IC50 was determined as 1800 nM.
Still for that read-out and setting: the value for `C=CC(=O)N1CCC[C@@H](Nc2ncnc(N)c2C(=O)c2ccc(Oc3ccccc3)cc2)C1` was 70 nM.

Another experiment deals with T1, Tyrosine-protein kinase BTK. The experiment in a line: Inhibition of BTK (unknown origin).
Compound `C=CC(=O)N1CCC[C@@H](n2c(=O)n(-c3ccc(Oc4ccccc4)cc3)c3c(N)ncnc32)C1` came in with an IC50 of 23.9 nM.
`C=CC(=O)Nc1cccc(Oc2nc(Nc3ccc(N4CCN(C)CC4)cc3)nc3ccsc23)c1` [OLMUTINIB] showed a half-inhibitory concentration (IC50) of 1 nM.

Source of the values: ChEMBL document CHEMBL3808322, “Structure-based discovery of novel 4,5,6-trisubstituted pyrimidines as potent covalent Bruton's tyrosine kinase inhibitors” (Bioorg Med Chem Lett, 2016).
